Measurements reported in ChEMBL document CHEMBL3244049, “Synthesis and antibacterial activity of 1-hydroxy-1-methyl-1,3-dihydrofuro[3,4-b]quinoxaline 4,9-dioxide and related compounds” (1979).
≈ marks a conversion by molar mass, not a printed value.

Experiments:
Format in all cases: functional
Salmonella enterica [1] = assay: Antibacterial activity against Salmonella choleraesuis infected in po dosed mouse assessed as protection from infection compound administered 0.5 hrs, 4 and 24 hrs post inoculation; conditions: read-out: PD50
Escherichia coli [2] = assay: Antibacterial activity against Escherichia coli infected in sc dosed mouse assessed as protection from infection compound administered 0.5 hrs, 4 and 24 hrs post inoculation; conditions: read-out: PD50
Salmonella enterica [3] = assay: Antibacterial activity against Salmonella choleraesuis infected in mouse assessed as protection from infection at 25 mg/kg, po administered 0.5 hrs, 4 and 24 hrs post inoculation
Pasteurella multocida [4] = assay: Antibacterial activity against Pasteurella multocida infected in sc dosed mouse assessed as protection from infection compound administered 0.5 hrs, 4 and 24 hrs post inoculation; conditions: read-out: PD50
Salmonella enterica [5] = assay: Antibacterial activity against Salmonella choleraesuis infected in sc dosed mouse assessed as protection from infection compound administered 0.5 hrs, 4 and 24 hrs post inoculation; conditions: read-out: PD50
Pasteurella multocida [6] = assay: Antibacterial activity against Pasteurella multocida infected in po dosed mouse assessed as protection from infection compound administered 0.5 hrs, 4 and 24 hrs post inoculation; conditions: read-out: PD50
Escherichia coli [7] = assay: Antibacterial activity against Escherichia coli infected in po dosed mouse assessed as protection from infection compound administered 0.5 hrs, 4 and 24 hrs post inoculation; conditions: read-out: PD50
Salmonella enterica [8] = assay: Antibacterial activity against Salmonella choleraesuis infected in mouse assessed as protection from infection at 25 mg/kg, sc administered 0.5 hrs, 4 and 24 hrs post inoculation; conditions: route subcutaneous
Pasteurella multocida [9] = assay: Antibacterial activity against Pasteurella multocida
Escherichia coli [10] = assay: Antibacterial activity against Escherichia coli
Salmonella enterica [11] = assay: Antibacterial activity against Salmonella choleraesuis
Streptococcus pyogenes = assay: Antibacterial activity against Streptococcus pyogenes
[12] = system: Brachyspira hyodysenteriae; assay: Antibacterial activity against Treponema hyodysenteriae after 72 hrs by dilution method

Row | SMILES | ED50 (Salmonella enterica [1]) | ED50 (Escherichia coli [2]) | Activity (Salmonella enterica [3]) | ED50 (Pasteurella multocida [4]) | ED50 (Salmonella enterica [5]) | ED50 (Pasteurella multocida [6]) | ED50 (Escherichia coli [7]) | Activity (Salmonella enterica [8]) | MIC (Pasteurella multocida [9]) | MIC (Escherichia coli [10]) | MIC (Salmonella enterica [11]) | MIC (Streptococcus pyogenes) | MIC [12]
1 | CC1(O)OCc2c1[n+]([O-])c1ccccc1[n+]2[O-] (configuration not stated) | 6 mg/kg | 13 mg/kg | 100% | 8.1 mg/kg | 4.4 mg/kg | 11 mg/kg | 14 mg/kg | 100% |  |  |  |  | 
2 | COC1(C)OCc2c1[n+]([O-])c1ccccc1[n+]2[O-] (configuration not stated) |  |  | 70% |  |  |  |  | 70% |  |  |  |  | 
3 | CCOC1(C)OCc2c1[n+]([O-])c1ccccc1[n+]2[O-] (configuration not stated) |  |  | 70% |  |  |  |  | 50% |  |  |  |  | 
4 | CC1(OCc2ccccc2)OCc2c1[n+]([O-])c1ccccc1[n+]2[O-] (configuration not stated) |  |  | 40% |  |  |  |  | 60% |  |  |  |  | 
5 | COC(=O)N/N=C/c1c[n+]([O-])c2ccccc2[n+]1[O-] [CARBADOX] | 20 mg/kg | 7 mg/kg | 80% | 18 mg/kg | 44 mg/kg | 16 mg/kg | 8.2 mg/kg | 40% | 0.78 µg/mL (≈ 2.97 µM) | 0.39 µg/mL (≈ 1.49 µM) | 0.19 µg/mL (≈ 0.725 µM) | 0.19 µg/mL (≈ 0.725 µM) | 0.09 µg/mL (≈ 0.343 µM)
